These results are taken from patent US7256201B2, “Selective estrogen receptor-β ligands” (AstraZeneca AB, priority 2000, dated 2007).

T1 sequence (Q92731 54-530 limits assumed): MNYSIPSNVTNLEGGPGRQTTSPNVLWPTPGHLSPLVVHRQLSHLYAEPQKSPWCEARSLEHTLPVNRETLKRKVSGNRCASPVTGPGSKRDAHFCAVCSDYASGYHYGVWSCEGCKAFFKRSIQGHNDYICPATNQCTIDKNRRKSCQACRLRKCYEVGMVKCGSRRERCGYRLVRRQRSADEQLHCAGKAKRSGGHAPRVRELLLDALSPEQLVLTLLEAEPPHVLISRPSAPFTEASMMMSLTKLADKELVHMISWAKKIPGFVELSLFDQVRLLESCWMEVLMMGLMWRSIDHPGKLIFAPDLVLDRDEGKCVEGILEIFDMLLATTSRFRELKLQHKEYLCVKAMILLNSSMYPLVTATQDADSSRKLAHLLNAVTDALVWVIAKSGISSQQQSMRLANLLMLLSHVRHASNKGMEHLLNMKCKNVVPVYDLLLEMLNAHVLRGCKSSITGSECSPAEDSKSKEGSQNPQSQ
T4 sequence (Q92731 whole entry): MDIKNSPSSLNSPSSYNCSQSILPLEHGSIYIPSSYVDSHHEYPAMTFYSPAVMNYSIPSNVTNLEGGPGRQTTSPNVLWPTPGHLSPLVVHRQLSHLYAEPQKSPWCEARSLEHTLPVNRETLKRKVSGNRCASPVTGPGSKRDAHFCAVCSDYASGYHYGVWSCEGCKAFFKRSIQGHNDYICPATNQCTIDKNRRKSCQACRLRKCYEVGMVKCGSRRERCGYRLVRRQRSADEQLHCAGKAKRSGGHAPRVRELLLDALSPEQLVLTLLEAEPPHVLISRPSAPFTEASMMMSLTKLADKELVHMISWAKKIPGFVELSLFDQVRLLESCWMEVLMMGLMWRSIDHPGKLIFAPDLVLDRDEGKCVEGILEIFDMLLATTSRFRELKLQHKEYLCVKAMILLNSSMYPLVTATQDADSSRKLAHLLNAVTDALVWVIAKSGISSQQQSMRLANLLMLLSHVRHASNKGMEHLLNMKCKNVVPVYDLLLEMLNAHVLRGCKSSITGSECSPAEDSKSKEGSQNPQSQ

The first experiment addresses T1, βER (Homo sapiens, UniProt Q92731).
T1 construct: expressed in transfected cells; host or cells: 293 cells (Human Embryonic Kidney, ATCC CRL-1573)
Description: Cell-based assay for ER transcriptional activity (ERE β-gal reporter), βER-transfected 293 cells. As to conditions: 293 cells transfected with βER and ERE reporter. The method, then:
(§1) ERs are ligand-dependent transcription factors that bind the promoter regions of genes at a consensus DNA sequence called the estrogen responsive element (ERE). The ER agonist or antagonist activity of a drug was determined by measuring the amount of reporter enzyme activity expressed from a plasmid under the control of an estrogen-responsive element when cells transiently transfected with ER and the reporter plasmid were exposed to drug. These experiments were conducted according to the following methods.
(§2) Estrogen Receptors alpha (αER, Gen Bank accession #M12674), and beta (βER, Gen Bank #X99101 were cloned into the expression vector pSG5 (Stratagene). A trimer of the vitellogenin-gene estrogen response element (vitERE) was synthesized as an oligonucleotide and attached to a beta-globin basal promoter in a construct named pERE3 gal. This response element and promoter were removed from pERE3 gal by digestion with the endonucleases SpeI (filled with Klenow fragment) and HindIII. This blunt/Hind III fragment was cloned into the β-galactosidase (β-gal) enhancer reporter plasmid (pBGALenh, Stratagene). αER and βER plasmids were purified using a the Endo Free Maxi Kit (Qiagen), and the DNA concentration and purity (A260/280 ratio) were determined spectrophotometrically (Pharmacia). Only DNA with A260/280 ratio of 1.8 and a concentration of >1 ug/uL was used for transfections.
(§3) All Transfections are performed in 293 cells (Human Embryonic Kidney cells ATCC #CRL-1573). Cells are grown in DMEM supplemented with 10% FBS, glutamine, sodium pyruvate and penicilin/streptomycin. Cells are grown to 70% confluency and split 1:4.
(§4) • 1. 293 cells are split the night before onto collagen I-coated 150 mm tissue-culture plates (Biocoat, Becton Dickinson #354551) at a density of 60-70% in DMEM Mediatech 17-205-CV) 10% charcoal-stripped FBS (biocell #6201-31). Approximately 1×10^7 cells/plate will yield 70% confluency. • 2. The next morning, 1 hour prior to transfection, the media is changed to fresh DMEM 10% FBS stripped and supplements. • 3. Transfections are performed using the Profection Kit (Promega #E1200). This kit is based on the calcium-phosphate-mediated transfection technique. Reagents are added in sterile polystyrene tubes in the following order:
(§5) Solution A • 15 μg αER or βER • 45 μg Reporter (pBGALenh or ERE3) • 1.5 mL Sterile Water • 186 μL CaCl2 • *Mix gently
(§6) Solution B • 1.5 mL 2× Hank's Buffered Salt Solution • 4. Using a vortex set on low, add solution A to solution B dropwise. The resulting solution should become milky in color. It is important to achieve thorough mixing. The solution is allowed to settle for 30 minutes, then vortexed before adding the solution to cells. • 5. Add the mixture to 150 mm plates dropwise. Mix well by rocking plates back and forth and side to side gently. After an hour, a very fine precipitate should be seen floating on and above cells under 20× magnification. If this precipitate is not observed, the transfection will not be effective. Incubate the cells for 12 hours. Receptor Stimulation: • 1. The day after transfection, cells are washed 2× with calcium- and magnesium-free Mg free PBS containing 1 mM EGTA (pH 7.6). Cells are trypsinized for 2 min with 3 mL of trypsin-EDTA. Trypsin is neutralized with DMEM 10% FCS. Cells are pelleted at 1000×g for 5 min. The cell pellet is then resuspended in 5 mL DMEM plus 2% phenol-red-free FCS supplemented with glutamine, pyruvate, and Penn/Strep. • 2. 50 μl of the resulting cell suspension is plated into each well of 96-well tissue culture dishes (Biocoat B&D #354407) using a multi-channel pipettor. The dishes have been previously loaded with 50 μL of DMSO-solubilized test compounds at twice the test concentration in DMEM. Data reported are either n=4 wells (single poke) and n=2 wells (9-point concentration-response curves). • 3. Cells are incubated overnight at 37° C. in the selected compounds. Reporter Assay: • 1. […]
What is called EC50 is the midpoint of the concentration-response curve. Regarding “6-Hydroxy-2-(4-hydroxyphenyl)-1-phenylisoindoline and 5-hydroxy-2-(4-hydroxyphenyl)-1-phenylisoindoline [Example 27]”, the EC50 worked out at 34 nM.

In turn, `Cc1cc(O)ccc1N1CCc2cc(O)ccc2C1` [Example 3, 2-(4-Hydroxy-2-methylphenyl)-1,2,3,4-tetrahydroisoquinolin-6-ol] yielded an EC50 of 35.7 nM.

The same experiment, now with this note: 293 cells transfected with βER and ERE reporter; maximal response; unit assumed.
On to “6-Hydroxy-2-(4-hydroxyphenyl)-1-phenylisoindoline and 5-hydroxy-2-(4-hydroxyphenyl)-1-phenylisoindoline [Example 27]”, for which the ERE β-ER Max worked out at 90%.

Take `Cc1cc(O)ccc1N1CCc2cc(O)ccc2C1` [Example 3, 2-(4-Hydroxy-2-methylphenyl)-1,2,3,4-tetrahydroisoquinolin-6-ol]: the ERE β-ER Max is 103%.

The experiment is the same for the next values; noted with them: ratio α-ER EC50 / β-ER EC50.
Take “6-Hydroxy-2-(4-hydroxyphenyl)-1-phenylisoindoline and 5-hydroxy-2-(4-hydroxyphenyl)-1-phenylisoindoline [Example 27]”: the “ERE Selectivity” value is reported as 0.2.

Regarding `Cc1cc(O)ccc1N1CCc2cc(O)ccc2C1` [Example 3, 2-(4-Hydroxy-2-methylphenyl)-1,2,3,4-tetrahydroisoquinolin-6-ol], the “ERE Selectivity” value was found to be 0.8.

In a further experiment the target is T2, human recombinant ERα (Homo sapiens, UniProt P03372).
T2 construct: purchased PanVera (Madison, Wis.)
T2 sequence (P03372 1-595): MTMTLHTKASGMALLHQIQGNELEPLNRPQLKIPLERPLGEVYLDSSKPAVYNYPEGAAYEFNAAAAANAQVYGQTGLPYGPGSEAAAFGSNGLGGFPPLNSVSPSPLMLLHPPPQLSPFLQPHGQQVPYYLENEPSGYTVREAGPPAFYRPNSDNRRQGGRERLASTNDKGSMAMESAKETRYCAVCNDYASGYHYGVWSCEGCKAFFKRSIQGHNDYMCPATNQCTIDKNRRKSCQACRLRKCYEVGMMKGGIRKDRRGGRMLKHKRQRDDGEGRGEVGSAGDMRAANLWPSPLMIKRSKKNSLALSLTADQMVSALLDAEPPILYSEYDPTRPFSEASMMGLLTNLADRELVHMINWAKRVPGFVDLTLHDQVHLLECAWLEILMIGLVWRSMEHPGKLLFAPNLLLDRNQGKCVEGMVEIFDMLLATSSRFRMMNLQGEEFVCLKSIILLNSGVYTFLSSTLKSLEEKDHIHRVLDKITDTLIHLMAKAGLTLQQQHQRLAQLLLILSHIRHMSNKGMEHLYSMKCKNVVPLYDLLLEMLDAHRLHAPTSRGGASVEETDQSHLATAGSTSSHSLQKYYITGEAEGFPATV
Put plainly: Fluorescence polarization estrogen receptor (ERFP) binding assay, ERα. As to conditions: competition with Fluormone ES2; IC50 converted to Ki by Kenakin formula; read-out: FP α-ER Ki. The method, then: (§7) A homogeneous mix-and-measure estrogen receptor (ER) binding assay which utilizes fluorescence polarization (FP) technology is used to identify compounds with affinity for the estrogen receptor. Purchased from PanVera (Madison, Wis.), assay reagents include purified human recombinant ERα, human recombinant ERβ, ES2 screening buffer (100 mM potassium phosphate, pH 7.4, 100 μg/mL bovine gamma globulin), and Fluormone™ ES2.
(§8) For competition binding experiments, dilutions of test compounds are prepared at 2× the final assay concentration in 0.2% DMSO in ES2 Screening buffer on TECAN Genosys, and 25 μL compound/well is dispensed into black Costar ½ volume 96-well plates. Dependent upon a lot specific Kd determination, 10-40 nM ERα or 10-40 nM ERβ and 1 nM Fluormone ES2 are then added to these plates in a final assay volume of 50 μL/well. Plates are gently shaken for at least 5 minutes to mix and incubated for at least 1 hr 45 minutes to achieve equilibrium. (Reaction mixtures are stable for up to 5 hours). After centrifugation to remove air bubbles, plates are read on an LJL Analyst or Acquest equipped with Criterion software at the following settings: Fluorescence Polarization Mode; Static Polarizer on Excitation Side; Dynamic Polarizer on Emission Side; Excitation λ=485×/−5 10 nm; Emission λ=520+/−12.5 nm.
(§9) Polarized fluorescence intensity values are collected and subsequently converted electronically to millipolarization (mp) values. Following data reduction and normalization with Excel and/or Prism software, % Ctrl values at the various test concentrations are used to obtain IC50 values via non-linear regression analysis of a four-parameter logistic equation.
(§10) Because ligand depletion is a consideration in this assay (˜40-60% input ES2 is bound in the assay), IC50 values are converted to Ki values through application of the Kenakin formula, as outlined in the reference below, rather than via the more routinely-used Cheng-Prusoff formula.
The term Ki denotes a measure of affinity in units of concentration, obtained from inhibition or displacement. In the case of “6-Hydroxy-2-(4-hydroxyphenyl)-1-phenylisoindoline and 5-hydroxy-2-(4-hydroxyphenyl)-1-phenylisoindoline [Example 27]”, the inhibition constant Ki came out at 170 nM.

For the compound `Oc1ccc(N2CCc3cc(O)ccc3C2)cc1` [Example 1, 2-(4-Hydroxyphenyl)-1,2,3,4-tetrahydroisoquinoline-6-ol], the Ki worked out at 1000 nM.

`Oc1ccc(N2CCc3cc(O)ccc3C2)c(Cl)c1` [Example 2, 2-(2-Chloro-4hydroxyphenyl)-1,2,3,4-tetrahydroisoquinoline-6-ol]: the Ki came to 48 nM.

With `Cc1cc(O)ccc1N1CCc2cc(O)ccc2C1` [Example 3, 2-(4-Hydroxy-2-methylphenyl)-1,2,3,4-tetrahydroisoquinolin-6-ol], the Ki stood at 60 nM.

In the case of `COc1ccc([N+](=O)[O-])cc1N1CCc2cc(O)ccc2C1` [Example 4, 2-(2-Methoxy-5-nitrophenyl)-1,2,3,4-tetrahydroisoquinolin-6-ol], the Ki is 655 nM.

With `O=[N+]([O-])c1cc(O)ccc1N1CCc2cc(O)ccc2C1` [Example 5, 2-(4-Hydroxy-2-nitrophenyl)-1,2,3,4-tetrahydroisoquinolin-6-ol], the Ki came out at 62 nM.

Turning to `Cc1ccc(C2c3ccc(O)cc3CCN2c2ccc(O)cc2)c(C)c1` (stereo not shown) [Example 7, 1-(2,4-Dimethylphenyl)-2-(4-hydroxyphenyl)-1,2,3,4-tetrahydroisoquinolin-6-ol], the Ki was determined as 62 nM.

In a further experiment the target is T3, αER (Homo sapiens, UniProt P03372).
T3 construct: expressed in transfected cells; host or cells: 293 cells (Human Embryonic Kidney, ATCC CRL-1573)
T3 sequence (P03372 1-595): T2 sequence (P03372 1-595)
Description: Cell-based assay for ER transcriptional activity (ERE β-gal reporter), αER-transfected 293 cells. The settings on record: 293 cells transfected with αER and ERE reporter; maximal response; unit assumed. The method, then:
as §1, §2, §3, §4, §5, §6
Turning to “6-Hydroxy-2-(4-hydroxyphenyl)-1-phenylisoindoline and 5-hydroxy-2-(4-hydroxyphenyl)-1-phenylisoindoline [Example 27]”, the ERE α-ER Max was 54%.

For the compound `Cc1cc(O)ccc1N1CCc2cc(O)ccc2C1` [Example 3, 2-(4-Hydroxy-2-methylphenyl)-1,2,3,4-tetrahydroisoquinolin-6-ol], the ERE α-ER Max is 93%.

Still in this experiment, the particulars now being: 293 cells transfected with αER and ERE reporter; read-out: ERE α-ER EC50.
On to “6-Hydroxy-2-(4-hydroxyphenyl)-1-phenylisoindoline and 5-hydroxy-2-(4-hydroxyphenyl)-1-phenylisoindoline [Example 27]”, for which the EC50 is 6.8 nM.

Regarding `Cc1cc(O)ccc1N1CCc2cc(O)ccc2C1` [Example 3, 2-(4-Hydroxy-2-methylphenyl)-1,2,3,4-tetrahydroisoquinolin-6-ol], the EC50 stood at 28.2 nM.

The next experiment concerns the target T4, human recombinant ERβ (Homo sapiens, UniProt Q92731).
T4 construct: purchased PanVera (Madison, Wis.)
Description: Fluorescence polarization estrogen receptor (ERFP) binding assay, ERβ. As to conditions: competition with Fluormone ES2; IC50 converted to Ki by Kenakin formula; read-out: FP β-ER Ki. The method, then:
as §7, §8, §9, §10
In general terms: Polarisation of emitted light reports the rotation of a fluorescent probe.
With “6-Hydroxy-2-(4-hydroxyphenyl)-1-phenylisoindoline and 5-hydroxy-2-(4-hydroxyphenyl)-1-phenylisoindoline [Example 27]”, the inhibition constant (Ki) is 190 nM.

On to `Oc1ccc(N2CCc3cc(O)ccc3C2)cc1` [Example 1, 2-(4-Hydroxyphenyl)-1,2,3,4-tetrahydroisoquinoline-6-ol], for which the inhibitory constant (Ki) was determined as 375 nM.

For `Oc1ccc(N2CCc3cc(O)ccc3C2)c(Cl)c1` [Example 2, 2-(2-Chloro-4hydroxyphenyl)-1,2,3,4-tetrahydroisoquinoline-6-ol], the Ki is 18 nM.

Regarding `Cc1cc(O)ccc1N1CCc2cc(O)ccc2C1` [Example 3, 2-(4-Hydroxy-2-methylphenyl)-1,2,3,4-tetrahydroisoquinolin-6-ol], the Ki came to 8 nM.

In the case of `COc1ccc([N+](=O)[O-])cc1N1CCc2cc(O)ccc2C1` [Example 4, 2-(2-Methoxy-5-nitrophenyl)-1,2,3,4-tetrahydroisoquinolin-6-ol], the Ki was determined as 459 nM.

As to `O=[N+]([O-])c1cc(O)ccc1N1CCc2cc(O)ccc2C1` [Example 5, 2-(4-Hydroxy-2-nitrophenyl)-1,2,3,4-tetrahydroisoquinolin-6-ol], the inhibition constant Ki was determined as 13 nM.

In the case of `Cc1ccc(C2c3ccc(O)cc3CCN2c2ccc(O)cc2)c(C)c1` (stereo not shown) [Example 7, 1-(2,4-Dimethylphenyl)-2-(4-hydroxyphenyl)-1,2,3,4-tetrahydroisoquinolin-6-ol], the Ki came out at 35 nM.

Still in this experiment, the particulars now being: ratio α-ER Ki / β-ER Ki.
In the case of “6-Hydroxy-2-(4-hydroxyphenyl)-1-phenylisoindoline and 5-hydroxy-2-(4-hydroxyphenyl)-1-phenylisoindoline [Example 27]”, the “FP Selectivity” value is listed as 0.9.

For `Oc1ccc(N2CCc3cc(O)ccc3C2)cc1` [Example 1, 2-(4-Hydroxyphenyl)-1,2,3,4-tetrahydroisoquinoline-6-ol], the “FP Selectivity” value turned out to be 2.7.

`Oc1ccc(N2CCc3cc(O)ccc3C2)c(Cl)c1` [Example 2, 2-(2-Chloro-4hydroxyphenyl)-1,2,3,4-tetrahydroisoquinoline-6-ol]: the “FP Selectivity” value came to 2.7.

With `Cc1cc(O)ccc1N1CCc2cc(O)ccc2C1` [Example 3, 2-(4-Hydroxy-2-methylphenyl)-1,2,3,4-tetrahydroisoquinolin-6-ol], the “FP Selectivity” value is listed as 7.4.

For `COc1ccc([N+](=O)[O-])cc1N1CCc2cc(O)ccc2C1` [Example 4, 2-(2-Methoxy-5-nitrophenyl)-1,2,3,4-tetrahydroisoquinolin-6-ol], the “FP Selectivity” value turned out to be 1.4.

Turning to `O=[N+]([O-])c1cc(O)ccc1N1CCc2cc(O)ccc2C1` [Example 5, 2-(4-Hydroxy-2-nitrophenyl)-1,2,3,4-tetrahydroisoquinolin-6-ol], the “FP Selectivity” value is 4.8.

Consider `Cc1ccc(C2c3ccc(O)cc3CCN2c2ccc(O)cc2)c(C)c1` (stereo not shown) [Example 7, 1-(2,4-Dimethylphenyl)-2-(4-hydroxyphenyl)-1,2,3,4-tetrahydroisoquinolin-6-ol], for which the “FP Selectivity” value is 1.8.
